Values of other authors in publication PMC12299598 (Pharmaceuticals, 2025).
Where two headings read alike, the source gives them in different places. Each block holds one compound with its values, some of them ahead of it.

Assays:
[1] = system: BTK; conditions: lower than ibrutinib
[2] = system: patients exposed to ibrutinib
[3] = system: patients treated with ibrutinib; design: method as in PMID 29419429
[4] = design: method as in PMID 38955074
[5] = system: CYP3A4; design: method as in PMID 1764870

Structure (SMILES): Nc1ncnc2c1c(-c1ccc(Oc3ccccc3)cc1)nn2C1CCCN(C(=O)C(O)CO)C1 (stereo not shown) [dihydrodiol metabolite]
BTK inhibitory activity relative to ibrutinib [1]: 15 fold

Structure (SMILES): C=CC(=O)N1CCC[C@@H](n2nc(-c3ccc(Oc4ccccc4)cc3)c3c(N)ncnc32)C1 [ibrutinib]
Cardiovascular deaths linked to ibrutinib [2]: 303
Mortality rate of cardiovascular ADRs ([2]; CNS events and heart failure): 20%
Mortality rate of cardiovascular ADRs ([2]; supraventricular and ventricular arrhythmias): 8%
Mortality rate ([2]; supraventricular arrhythmias with concurrent CNS events): 28.8%
Toxicity leading to discontinuation: arthralgia ([3]; front-line ibrutinib): 41.6%
Toxicity leading to discontinuation: atrial fibrillation ([3]; front-line ibrutinib): 25%
Toxicity leading to discontinuation: rash ([3]; front-line ibrutinib): 16.7%
Toxicity leading to discontinuation: atrial fibrillation ([3]; relapsed/refractory population): 12.3%
Toxicity leading to discontinuation: bleeding ([3]; relapsed/refractory population): 9%
Toxicity leading to discontinuation: diarrhea ([3]; relapsed/refractory population): 6.6%
Toxicity leading to discontinuation: infection ([3]; relapsed/refractory population): 10.7%
Toxicity leading to discontinuation: pneumonitis ([3]; relapsed/refractory population): 9.9%
Absolute oral bioavailability (fasting conditions): 3.9%
Time to peak concentration (oral administration): 1 to 2 h
Absolute oral bioavailability (with standard breakfast): 8.4%
Permeability [4]: high
Solubility [4]: low

CYP3A4 inhibitor strength [5]: weak
Structure (SMILES): COc1ccc2[nH]c([S+]([O-])Cc3ncc(C)c(OC)c3C)nc2c1 (stereo not shown) [omeprazole]
